The values below come from patent US6034120A, “Insect antifeedant for agriculture” (Morita Kaguku Kogyo Co., Ltd., priority 1997, dated 2000).

Series [1] deals with Tyrophagus putrescentiae SCHRANK. Put plainly: dry film method in test tube, repelling of Tyrophagus putrescentiae. Format: in vivo. The conditions noted are these: 1 mg, 25° C., 1 day. Here is the method: To 1 mg of cyperaquinone was added acetone and the resulting solution was charged in a test tube (a diameter of 1 cm). Thereafter, the solution was treated by the dry film method. (The method is as follows: a solution was charged at the bottom of a test tube. After applying the solution to the wall of the test tube, the solvent was removed to leave a sample on the wall of the test tube.) Fifty Tyrophagus putrescentiae SCHRANK were set in the test tube. After growing them at 25° C. for 1 day, the confirmation was conducted with a stereomicroscope.

Series [2] relates to Spodoptera litura FABRICIUS
Nature of the series: antifeeding effect by the leaf disk method (antifeedant index). Format: in vivo, Spodoptera litura FABRICIUS larvae, third or fourth instar. More on the design: key to Antifeedant index (AFI): AFI = 100×T/(T+C); 50 = same as control, ≤30 = antifeeding. The settings on record: for Antifeedant index (AFI): 30 or less = antifeeding activity. Here is the method: A test for an antifeeding effect on insects was conducted by the leaf disk method. After wiping off the surface of a leaf of Ipomoea batatas with acetone in order to remove extraneous matter on the leaf, a disk having a diameter of 2 cm was cut out with a cork borer, avoiding the veins of the leaf. An acetone solution containing the predetermined amount of samples was applied to the disk, which was sufficiently air-dried. As a control, the same amount of acetone solution was used, and applied to the leaf disk in the same manner as in the sample. Two pieces each of the sample and the control were placed crosswise in a petri dish, and 15 larvae of Spodoptera litura FABRICIUS were set in the petri dish to put on the lid. The Spodoptera litura FABRICIUS used was the third or fourth instar. This is because the younger the larvae, the greater the effect they receive due to allelochemical. The first or second instar larvae prefer to eat a tender portion of the leaf because they cannot eat hard veins or fiber of the leaf. On the other hand, the fifth or sixth instar larvae move the leafdisk because they are well-built. Further, the antifeeding effect due to allelochemical is lowered because they eat any portion of the leaf. Therefore, it is better not to use the fifth or sixth instar larvae.
The petri dish was allowed to stand in a thermostatic chamber at 25 to 27° C. under light. Two to 5 hours later, 4 pieces of the leaf were taken out to convert them into black and white pictures with a photocopier. Using a scanner, the disk area was digitized, and then the disk area was expressed numerically at the pixel unit on a Mackintosh computer using a free soft NIH image.
The method of calculating an antifeedant index (AFI) is as follows. First, a standard area of an intact leaf is calculated. The ratio of the area of the leaf consumed by the larvae to the standard area of the leaf was calculated.
Antifeedant index=100×T/(T+C)
T: Total percentage of treated disk consumed
C: Total percentage of control disk consumed
If this index is 30 or less, the tested leaf has antifeeding activity. […] When the consumed area of the sample and that of the control is the same, the antifeedant index indicates 50.
Concerning scabequinone, remirol, cyperaquinone and methylremirol, the AFI and FR were calculated according to the method for testing an antifeeding effect.

Series [3] concerns Plutella maculipennis CURTIS. Put plainly: test for an insecticidal effect (contact application). Format: in vivo, Plutella maculipennis CURTIS larvae, third instar. The conditions noted are these: for LD50: acetone solution applied to third instar larvae, 24 hours, probit method; for insecticidal effect / LD50 comparison (in words): versus scabequinone. Here is the method:
In order to test the insecticidal effect of remirol, methylremirol and scabequinone, acetone was added to each sample and the resulting acetone solution was applied to the third instar larvae of Plutella maculipennis CURTIS. Thereafter, Kaiwaredaikon (Raphanus sativus LINN, C.V. shijunichi) was fed to them as a feed and the number of survived larvae after 24 hours was counted. LD50 (lethal dose 50) was calculated by the probit method.

The subject of the next series is plants. The settings on record: background statement; cited from earlier work.
Setting [4] is: 1 mg/leaf, 50 = no difference from control.

“Also recorded” adds a separate entry of the source.

As for `C=C(C)c1cc2c(o1)C(=O)c1occ(C)c1C2=O` [cyperaquinone], in series [1], the “mortality (in words)” value is on record as “Some of the Tyrophagus putrescentiae SCHRANK were dead”. Also, the “repelling effect (in words)” value in series [1] is “had a repelling effect on Tyrophagus putrescentiae SCHRANK”. For the same molecule, the “FR (consumed ratio of treated leaves)” value amounted to 16.18 in series [2] (0.1 mg/leaf), 13.92 in series [2] (0.25 mg/leaf) and 9.98 in series [2] (1 mg/leaf). In addition, the “Antifeedant index (AFI)” value is 26.03 in series [2] (0.25 mg/leaf) and 20.98 in series [2] (setting [4]).
For the molecule `C=C(C)C1Cc2c(cc(OC)c(C(C)=O)c2O)O1` (stereo not drawn) [remirol], the LD50 in series [3] is reported as 0.125 mg. Further, the “insecticidal effect / LD50 comparison (in words)” value in series [3] was “superior to scabequinone in the insecticidal effect”. The “FR (consumed ratio of treated leaves)” value in series [2] (0.1 mg/leaf) is 11.33; in series [2] (0.25 mg/leaf) it was 10.31; in series [2] (1 mg/leaf) it was 3.84. Moreover, the “Antifeedant index (AFI)” value was found to be 19.02 in series [2] (0.25 mg/leaf) and 8.57 in series [2] (setting [4]).
Turning to `O=c1c(O)c(-c2ccc(O)c(O)c2)oc2cc(O)cc(O)c12` [quercetin, reference compound], the “FR (consumed ratio of treated leaves)” value amounted to 15.96 in series [2] (0.1 mg/leaf), 13.07 in series [2] (0.25 mg/leaf) and 0.66 in series [2] (1 mg/leaf). Further, the “Antifeedant index (AFI)” value in series [2] (0.1 mg/leaf) turned out to be 25.04; in series [2] (0.25 mg/leaf), 25.08; in series [2] (setting [4]), 2.07.
With `Cc1coc2c1C(=O)C1=C(OCC(C(C)C)C1)C2=O` (stereo not drawn) [scabequinone], in series [3], the LD50 is reported as 1.371 mg. Further, the “FR (consumed ratio of treated leaves)” value in series [2] (0.1 mg/leaf) is 1.61; in series [2] (0.25 mg/leaf) it was 0.47. Moreover, the entries for the “Antifeedant index (AFI)” value in series [2] (0.1 mg/leaf), in series [2] (0.25 mg/leaf) and in series [2] (setting [4]) were 4.22, 2.16 and 0, respectively. In addition, in series [2] (leaf disk method), the “antifeeding effect (in words)” value is “did quite well in the antifeeding effect; also recorded: by far superior to another commercially available product quercetin”.
On to `C=C(C)C1Cc2c(cc(OC)c(C(C)=O)c2OC)O1` (stereo not drawn) [methylremirol], for which, in series [3], the LD50 was 1.0 mg and the “insecticidal effect / LD50 comparison (in words)” value is listed as “superior to scabequinone in the insecticidal effect”. For the same molecule, the “Antifeedant index (AFI)” value in series [2] (setting [4]) was 0.
As for `C=C(C)C1Cc2c(OC)cc(OC)cc2O1` (stereo not drawn) [2-isopopenyl-4,6-methoxy-coumaran, 2-isopropenyl-4,6-methoxycoumaran], in series [2] (setting [4]), the “Antifeedant index (AFI)” value was 26.1.
Consider `O=C1C=CC(=O)c2c(O)cccc21` [juglone, reference compound], for which, in the series on plants, the “anti-breeding effect on the plants” value was “strong anti-breedingeffect on the plants”. Besides, the “FR (consumed ratio of treated leaves)” value in series [2] (0.1 mg/leaf), in series [2] (0.25 mg/leaf) and in series [2] (1 mg/leaf) was 0 each time. Also, the “Antifeedant index (AFI)” value in series [2] (0.1 mg/leaf), in series [2] (0.25 mg/leaf) and in series [2] (setting [4]) was 0 each time.
In the case of `C=C(C)C1Cc2c(cc(OC)c(C(C)=O)c2OC)O1` (racemic) [racemic methylremirol], the “Antifeedant index (AFI)” value in series [2] (setting [4]) came to 44.3.
